Test results taken from ChEMBL document CHEMBL1139796, “Novel anti-tuberculosis agents from MCR libraries” (Bioorg Med Chem Lett, 2007).
In brackets after ≈: the same amount, converted by molar mass.

Columns and labels:
[1] = test system: Mycobacterium tuberculosis; assay: Antimycobacterial activity against Mycobacterium tuberculosis H37Rv by broth microdilution alamar blue assay; type: functional
[2] = Selectivity index, IC50 for Vero cells to MIC for Mycobacterium tuberculosis H37Rv; type: functional
Vero = assay: Cytotoxicity against Vero cells; type: cell-based; details: Chlorocebus sabaeus
[3] = test system: Mycobacterium tuberculosis; assay: Reduction of Mycobacterium tuberculosis H37Rv growth in mouse peritoneal macrophage monolayers after 7 days; type: functional; details: 168 h

Structure (SMILES)	MIC [1]	Selectivity index [2]	IC50 (Vero)	EC90 [3]	EC99 [3]
CCCCC(C(=O)NCc1ccccc1)N(C(=O)c1cnccn1)C1CCCCC1 (centres undefined)	3.13 µg/mL (≈ 7.66 µM)	9.9	27.9 µg/mL (≈ 68.3 µM)	–	–
CC(C)CCN(C(=O)c1cccnc1)C(C(=O)NCc1cccnc1)c1ccccc1 (centres undefined)	3.13 µg/mL (≈ 7.51 µM)	16.1	50.3 µg/mL (≈ 121 µM)	> 12.5 µg/mL	> 12.5 µg/mL
C=CCNC(=O)C1(OC(=O)c2cccnc2)CCN(Cc2ccccc2)CC1	6.25 µg/mL (≈ 16.5 µM)	>10	> 62.5 µg/mL	–	–
C=CCNC(=O)C(CCCC)N(CC=C)C(=O)c1cccnc1.Cl (centres undefined)	3.13 µg/mL	9.9	31.1 µg/mL	–	–
